# Laboratory results reported in patent US20240182487A1, “MACROCYCLES AND THEIR USE” (BLOSSOMHILL THERAPEUTICS, INC., priority 2020, published 2024).
# Target: EGFR (Δ746-750) (Homo sapiens (Human), UniProt P00533, DEL746-750)
# Assay: HotSpot radiometric kinase assay, EGFR Δ746-750
# Format: biochemical
# Details: radiometric filter-binding, 10 μM ATP
# Chain of EGFR (Δ746-750) (P00533 other isoform, or with tags, fused parts or gaps del 1-668/del 746-750 limits assumed): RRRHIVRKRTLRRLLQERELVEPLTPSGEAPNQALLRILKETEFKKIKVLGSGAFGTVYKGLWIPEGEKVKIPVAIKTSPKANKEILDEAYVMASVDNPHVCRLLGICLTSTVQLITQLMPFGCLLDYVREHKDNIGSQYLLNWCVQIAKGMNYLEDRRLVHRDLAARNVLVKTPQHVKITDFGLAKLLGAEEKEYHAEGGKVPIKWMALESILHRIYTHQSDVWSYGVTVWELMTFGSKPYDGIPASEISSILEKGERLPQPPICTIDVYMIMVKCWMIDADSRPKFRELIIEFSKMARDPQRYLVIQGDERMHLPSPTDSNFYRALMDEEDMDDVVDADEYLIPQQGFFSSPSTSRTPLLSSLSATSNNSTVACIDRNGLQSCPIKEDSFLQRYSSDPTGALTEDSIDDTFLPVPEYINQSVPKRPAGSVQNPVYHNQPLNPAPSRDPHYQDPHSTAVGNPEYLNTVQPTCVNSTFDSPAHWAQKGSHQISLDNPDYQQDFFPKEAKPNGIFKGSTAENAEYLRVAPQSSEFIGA
row,SMILES,IC50 [nM]
1,"CN1CC(NC(=O)c2ccc3c(c2)OCCCOc2c(cnn2C)-c2cc4c(n[nH]c4cn2)/C=C/3)C1 [Cpd. 83, (11E)-1-methyl-N-(1-methylazetidin-3-yl)-19,20-dihydro-1H,8H,18H-10,7,4-(ethan[1]yl[1,2]diylidene)pyrazolo[3,4-f][1,5,9,12,13]benzodioxatriazacyclooctadecine-15-carboxamide]",34.4
2,"CN1CCC(NC(=O)c2ccc3c(c2)OCCCOc2c(cnn2C)-c2cc4c(n[nH]c4cn2)/C=C/3)CC1 [Cpd. 78, (11E)-1-methyl-N-(1-methylpiperidin-4-yl)-19,20-dihydro-1H,8H,18H-10,7,4-(ethan[1]yl[1,2]diylidene)pyrazolo[3,4-f][1,5,9,12,13]benzodioxatriazacyclooctadecine-15-carboxamide]",5.3
3,"CN(C)CCNC(=O)c1ccc2c(c1)/C=C/c1n[nH]c3cnc(cc13)-c1cnn(C)c1COCCO2 [Cpd. 90, (11E)-N-[2-(dimethylamino)ethyl]-1-methyl-1,18,19,21-tetrahydro-8H-10,7,4-(ethan[1]yl[1,2]diylidene)pyrazolo[3,4-f][1,4,9,12,13]benzodioxatriazacyclooctadecine-14-carboxamide]",16.8
4,"Cn1ncc2c1OCCCOc1ccc(F)cc1/C=C/c1n[nH]c3cnc-2cc13 [Cpd. 100, (11E)-14-fluoro-1-methyl-19,20-dihydro-1H,8H,18H-10,7,4-(ethan[1]yl[1,2]diylidene)pyrazolo[3,4-f][1,5,9,12,13]benzodioxatriazacyclooctadecine]",24
5,"CNC(=O)c1ccc2c(c1)/C=C/c1n[nH]c3cnc(cc13)-c1cnn(C)c1OCCCO2 [Cpd. 86, (11E)-N,1-dimethyl-19,20-dihydro-1H,8H,18H-10,7,4-(ethan[1]yl[1,2]diylidene)pyrazolo[3,4-f][1,5,9,12,13]benzodioxatriazacyclooctadecine-14-carboxamide]",15.6
6,"CCNC(=O)c1ccc2c(c1)/C=C/c1n[nH]c3cnc(cc13)-c1cnn(C)c1COCCO2 [Cpd. 89, (11E)-N-ethyl-1-methyl-1,18,19,21-tetrahydro-8H-10,7,4-(ethan[1]yl[1,2]diylidene)pyrazolo[3,4-f][1,4,9,12,13]benzodioxatriazacyclooctadecine-14-carboxamide]",23.8
7,"CCNC(=O)c1ccc2c(c1)OCCOCc1c(cnn1C)-c1cc3c(n[nH]c3cn1)/C=C/2 [Cpd. 84, (11E)-N-ethyl-1-methyl-1,18,19,21-tetrahydro-8H-10,7,4-(ethan[1]yl[1,2]diylidene)pyrazolo[3,4-f][1,4,9,12,13]benzodioxatriazacyclooctadecine-15-carboxamide]",240
8,"CN1CC[C@@H](NC(=O)c2ccc3c(c2)OCCOCc2c(cnn2C)-c2cc4c(n[nH]c4cn2)/C=C/3)C1 [Cpd. 87, (11E)-1-methyl-N-[(3R)-1-methylpyrrolidin-3-yl]-1,18,19,21-tetrahydro-8H-10,7,4-(ethan[1]yl[1,2]diylidene)pyrazolo[3,4-f][1,4,9,12,13]benzodioxatriazacyclooctadecine-15-carboxamide]",34.6
9,"COC(=O)c1ccc2c(c1)OCCCOc1c(cnn1C)-c1cc3c(n[nH]c3cn1)/C=C/2 [Cpd. 67, methyl (11E)-1-methyl-19,20-dihydro-1H,8H,18H-10,7,4-(ethan[1]yl[1,2]diylidene)pyrazolo[3,4-f][1,5,9,12,13]benzodioxatriazacyclooctadecine-15-carboxylate]",1530
10,"CN(C)CCNC(=O)c1ccc2c(c1)OCCCOc1c(cnn1C)-c1cc3c(n[nH]c3cn1)/C=C/2 [Cpd. 74, (11E)-N-[2-(dimethylamino)ethyl]-1-methyl-19,20-dihydro-1H,8H,18H-10,7,4-(ethan[1]yl[1,2]diylidene)pyrazolo[3,4-f][1,5,9,12,13]benzodioxatriazacyclooctadecine-15-carboxamide]",4
11,"CN1CCC(NC(=O)c2ccc3c(c2)/C=C/c2n[nH]c4cnc(cc24)-c2cnn(C)c2OCCCO3)CC1 [Cpd. 97, (11E)-1-methyl-N-(1-methylpiperidin-4-yl)-19,20-dihydro-1H,8H,18H-10,7,4-(ethan[1]yl[1,2]diylidene)pyrazolo[3,4-f][1,5,9,12,13]benzodioxatriazacyclooctadecine-14-carboxamide]",9.7
12,"Cn1ncc2c1OCCCOc1ccc(C(=O)N3CCCC3)cc1/C=C/c1n[nH]c3cnc-2cc13 [Cpd. 72, [(11E)-1-methyl-19,20-dihydro-1H,8H,18H-10,7,4-(ethan[1]yl[1,2]diylidene)pyrazolo[3,4-f][1,5,9,12,13]benzodioxatriazacyclooctadecin-14-yl](pyrrolidin-1-yl)methanone]",18.3
13,"CN1CC[C@H](NC(=O)c2ccc3c(c2)OCCCOc2c(cnn2C)-c2cc4c(n[nH]c4cn2)/C=C/3)C1 [Cpd. 88, (11E)-1-methyl-N-[(3S)-1-methylpyrrolidin-3-yl]-19,20-dihydro-1H,8H,18H-10,7,4-(ethan[1]yl[1,2]diylidene)pyrazolo[3,4-f][1,5,9,12,13]benzodioxatriazacyclooctadecine-15-carboxamide]",24.6
14,"CN1CCN(C(=O)c2ccc3c(c2)/C=C/c2n[nH]c4cnc(cc24)-c2cnn(C)c2COCCO3)CC1 [Cpd. 96, (4-methylpiperazin-1-yl)[(11E)-1-methyl-1,18,19,21-tetrahydro-8H-10,7,4-(ethan[1]yl[1,2]diylidene)pyrazolo[3,4-f][1,4,9,12,13]benzodioxatriazacyclooctadecin-14-yl]methanone]",740
15,"CN1CCC(NC(=O)c2ccc3c(c2)/C=C/c2n[nH]c4cnc(cc24)-c2cnn(C)c2COCCO3)CC1 [Cpd. 93, (11E)-1-methyl-N-(1-methylpiperidin-4-yl)-1,18,19,21-tetrahydro-8H-10,7,4-(ethan[1]yl[1,2]diylidene)pyrazolo[3,4-f][1,4,9,12,13]benzodioxatriazacyclooctadecine-14-carboxamide]",13.6
16,"Cc1nc2cc3c(n[nH]c13)/C=C/c1cc(F)ccc1OCCCOc1c-2cnn1C [Cpd. 98, (11E)-14-fluoro-1,6-dimethyl-19,20-dihydro-1H,8H,18H-10,7,4-(ethan[1]yl[1,2]diylidene)pyrazolo[3,4-f][1,5,9,12,13]benzodioxatriazacyclooctadecine]",836
17,"COC(=O)c1ccc2c(c1)OCCOCc1c(cnn1C)-c1cc3c(n[nH]c3cn1)/C=C/2 [Cpd. 69, methyl (11E)-1-methyl-1,18,19,21-tetrahydro-8H-10,7,4-(ethan[1]yl[1,2]diylidene)pyrazolo[3,4-f][1,4,9,12,13]benzodioxatriazacyclooctadecine-15-carboxylate]",1000
18,"Cn1ncc2c1OCCCOc1cc(C(=O)O)ccc1/C=C/c1n[nH]c3cnc-2cc13 [Cpd. 73, (11E)-1-methyl-19,20-dihydro-1H,8H,18H-10,7,4-(ethan[1]yl[1,2]diylidene)pyrazolo[3,4-f][1,5,9,12,13]benzodioxatriazacyclooctadecine-15-carboxylic acid]",35.8
19,"CCc1c2c(nn1C)C(=O)N(C)CCOc1c[nH]c(=O)cc1-c1cc3c(n[nH]c3cn1)/C=C/2 [Cpd. 38, (18E)-17-ethyl-13,16-dimethyl-2,12,13,16-tetrahydro-5,3-(azenometheno)dipyrazolo[3,4-f:3′,4′-j]pyrido[4,3-n][1,4]oxazacyclopentadecine-7,14(8H,11H)-dione]",964
